Legend:
[1] = molecular target: T1, Syk-cSH2 E164Q (Homo sapiens, UniProt P43405, E164Q); assay: Fluorescence quenching vesicle binding assay, Syk-cSH2 E164Q mutant; details: POPC/POPS/PIP3/dabsyl-PE vesicles
T1 construct: polyhistidine (N); made in house; host or cells: Escherichia coli BL21 (DE3) pLysS
Description: The membrane-binding assay is based on fluorescence quenching of EGFP fused to a SH2 domain by a dark quencher containing lipid, dabsyl-PE, incorporated in lipid vesicles. The plate reader assay was performed using the Synergy™ Neo spectrofluorometer at 25° C. Nontreated black polystyrene 96-well plates (Corning) were used. Protein (10-50 nM) with the increasing concentration of vesicles with a given lipid composition in 20 mM Tris buffer, pH 7.4, containing 0.16 M NaCl was added to each row of wells and the EGFP fluorescence emission at 516 nm was measured with excitation set at 485 nm. Z′ factor for the assay system was determined as described^74. Imax and IC50 values of inhibitors were determined using the equation, I=Imax/(1+IC50/[I]) where I and [I] indicate % inhibition and inhibitor concentration, respectively. The average and standard deviation values were obtained from triplicate determinations.

[2] = test system: Raji B cells; assay: Cell viability assay (CellTiter-Glo), Raji cells; assay type: cell-based; details: 0.5-5 μM
Description: All cell viability assays were conducted in a white, flat-bottom, 96-well tissue culture plate (Corning). The Raji cells were seeded at a density of 3.0×10^5 cells/well 24 h prior to the incubation with the inhibitor. Varying concentrations of WC36 (or DMSO) was then added to each well and the plates were incubated at 37° C. and at 5% CO2 for 72 h. Cell viability was quantified with the CellTiter-Glo reagent. Growth media were removed by aspiration and replaced with 100 μl fresh media and 100 μl CellTiter-Glo reagent. The plates were then gently shaken for 2 min and incubated at 25 C.° for additional 8 min. The luminescence was measured using Synergy™ Neo spectrofluorometer at 25 C.°. The luminescence value at each WC36 concentration was normalized against that without WC36. DMSO with the same volume as the WC36 solution was used as negative controls.

[3] = molecular target: T2, scaffolding function of Syk (Homo sapiens, UniProt P43405); assay: Co-immunoprecipitation with Syk, entospletinib-resistant MV4-11 cells; assay type: cell-based; details: 5 μM
T2 construct: host or cells: MV4-11 AML cells (naive and entospletinib-resistant)
Description: (§1) MV-4-11 cells were collected by centrifugation, washed twice with phosphate phosphate-buffered saline (PBS) and resuspended in the immunoprecipitation (IP) buffer (50 mM HEPES, pH 7.4, 150 mM NaCl, 1 mM MgCl2, 1 mM EGTA, and 0.25 mM GTP) with 0.2-0.5% Triton X-100 and a protease inhibitor mix (Sigma-Aldrich). Lysates were prepared after 5 min of incubation on ice by repeated pipetting and centrifugation for 10 min at 12,000 g and at 4° C. For immunoprecipitation, the SYK-specific antibody was immobilized onto 100 μl Dynabeads/protein A (ThermoFisher) and the excess antibody was washed away by placing the tube in a DynaMag magnet and removing the supernatant. The resuspended beads were then incubated with the cell extract supernatant containing 500 μg of proteins for 1 h at 4° C. The immunoprecipitates were rinsed three times with the IP buffer and eluted with 30 μl of the sample buffer containing sodium dodecyl sulfate (SDS). For detection of proteins in total extracts (i.e., Input), 30 μg of the sample was loaded in each gel lane for western blot analysis.

[4] = molecular target: T2, scaffolding function of Syk; assay: Co-immunoprecipitation with Syk, naïve MV4-11 cells; assay type: cell-based; details: 5 μM
Description: as §1

[5] = test system: HL60 cells; assay: XTT cell proliferation assay, HL60 cells; assay type: cell-based
Description: MV4-11 or HL-60 cells were seeded into a clear-bottom 96-well plate containing varying concentrations of inhibitors in the optimal growth media described above and the mixtures were incubated for 16 h. Cells were then treated with a mixture of XTT-labeling reagents and the electron coupling reagents according to the manufacturer's protocol (Roche). After 4 h, the absorbance values at 475 nm and at 660 nm were simultaneously measured by Synergy™ Neo spectrofluorometer at 25° C. Cells with the growth media was used for background correction.

inhibition of membrane binding of Syk-cSH2 E164Q [1]: refractory to WC36 inhibition
suppression of co-precipitation with Syk [3]: greatly suppressed co-precipitation
Compound: [N-]=[N+]=C(C(=O)OC1CCCCC1)C(Nc1ncccn1)c1c[nH]c2ccccc12 (racemic) [WC36, Cyclohexyl 2-diazo-3-(1H-indol-3-yl)-3-(pyrimidin-2-ylamino)propanoate]
effect on cell viability [2]: minimal effect on cell viability
suppression of the scaffolding function of Syk (co-precipitation) [4]: greatly suppressed the scaffolding function of Syk
inhibition of proliferation (XTT assay) [5]: potently suppressed the proliferation of HL60 cells

Source: patent US20250346582A1, “SPLEEN TYROSINE KINASE INHIBITORS AND METHODS OF USE THEREOF” (THE BOARD OF TRUSTEES OF THE UNIVERSITY OF ILLINOIS, priority 2022, published 2025)
